This is an account of results in US20210338681A1, “COMBINATION THERAPIES” (SECURA BIO, INC., priority 2018, published 2021).

Experiment [1] has as its system human macrophages. Description: Phagocytosis of CTV-labelled DLD-1 and Raji cells by human monocyte-derived macrophages, flow cytometry-based assay (Example 1). It is filed as cell-based. The settings on record: FIG. 1. How it is done:
PBMC were isolated using a density gradient from healthy donor blood samples. CD14+ monocytes were then separated using magnetic selection and differentiated into MO macrophages for 6 days in the presence of M-CSF and 3000 nM of duvelisib or vehicle (DMSO). Two cell lines positive for surface expression of CD47, DLD-1 (ATCC® CCL-221™) and Raji cells (ATCC® CCL-86™), were labelled with cell trace violet (CTV). These were then offered to the macrophage cultures in the presence of duvelisib or vehicle control for 4 hours to allow phagocytosis to occur. For the part of the assay where a CD47 blocking antibody and an opsonizing antibody were used, CD47 blocking antibody at 1 μg/ml (clone B6H12) and rituximab (for Raji cells) or cetuximab (for DLD-1 cells) at 1 μg/ml were added during the 4 hours co-culture. The effect of duvelisib on the capacity of macrophages to phagocytose target cells was determined in a flow cytometry-based assay.
(In flow cytometry, cells or beads pass a laser one at a time.)

The test system of experiment [2] is human macrophages. Briefly: Phagocytosis of CTV-labelled Raji cells by human monocyte-derived macrophages with anti-CD47 clone 5F9, flow cytometry-based assay (Example 2). The experiment is classed as cell-based. The settings on record: 3000 nM duvelisib during last 3 days of differentiation; CD47 blocking antibody clone 5F9 300 ng/ml, 2 hours; compared to duvelisib or anti-CD47 alone; FIG. 2. The method, then: PBMC were isolated using a density gradient from healthy donor blood samples. CD14+ monocytes were then separated using magnetic selection and differentiated into MO macrophages for 6 days in the presence of M-CSF. Duvelisib (3000 nM) or vehicle (DMSO) were added during the last 3 days of differentiation. Raji cells (ATCC® CCL-86™), which are positive for surface expression of CD47, were labelled with cell trace violet (CTV). These cells were then offered to the macrophage cultures in the presence of CD47 blocking antibody at 300 ng/ml (clone 5F9) for 2 hours to allow phagocytosis to occur. The effect of duvelisib on the capacity of macrophages to phagocytose target cells was determined in a flow cytometry-based assay.

SMILES strings stand for the structures. “Also recorded” adds a separate entry of the source.

For the molecule `C[C@H](Nc1ncnc2[nH]cnc12)c1cc2cccc(Cl)c2c(=O)n1-c1ccccc1` [duvelisib, (S)-3-(1-((9H-purin-6-yl)amino)ethyl)-8-chloro-2-phenylisoquinolin-1(2H)-one], the “phagocytosis by human macrophages, duvelisib as a single agent” value in the experiment with human macrophages [1] (3000 nM duvelisib vs vehicle (DMSO) during 6 days differentiation with M-CSF and 4 hours co-culture, target cells DLD-1 and Raji, two representative donors per condition) is listed as “increases phagocytosis; also recorded: increasing phagocytosis”. Moreover, in the experiment with human macrophages [1] (3000 nM duvelisib, CD47 blocking antibody clone B6H12 1 μg/ml plus rituximab (Raji cells) or cetuximab (DLD-1 cells) 1 μg/ml during 4 hours co-culture), the “phagocytosis by human macrophages, duvelisib in combination with anti-CD47 (clone B6H12) and an opsonizing antibody” value is on record as “increases phagocytosis; also recorded: increasing phagocytosis”. Moreover, the “phagocytosis of Raji Burkitt's lymphoma cells by human macrophages, duvelisib in combination with anti-CD47 (clone 5F9)” value in the experiment with human macrophages [2] is “enhances phagocytosis; also recorded: increasing phagocytosis”.
